Tests used:
washed red blood cells = test: Reverse Hemox assay (OEC), washed red blood cells; assay type: cell-based, human
Protocol: Oxygen Equilibrium Curves (OEC) of whole blood before and after treatment with different concentrations of compounds 12, 22 and 23 were performed as follows using a HEMOX analyzer (TCS Scientific, New Hope, Pa.). Blood samples from homozygous sickle cell patients were obtained though the Hemoglobinopathy Center at Children's Hospital Oakland Research Institute (CHORI) with Institutional Review Board approval. The hematocrit was adjusted to 20% using autologous plasma and the blood samples were incubated for 1 hour at 37° C. in absence or presence of compounds. 100 μl of these samples were added to 5 mL of Hemox butter (30 mM TES, 130 mM NaCl, 5 mM KCl, pH=7.4) at 37° C. and then transferred to the Hemox sample chamber. The samples were saturated with oxygen by flushing with compressed air for 10 minutes. The samples were then flushed with pure nitrogen and the respective absorbances of oxy- and deoxy-Hb are recorded as a function of the solution pO2. The oxygen equilibrium data were then fitted to the Hill Model to obtain values for p50. The deoxygenation curves for both whole blood alone (control) and whole blood in the presence of the compound were collected with the TCS software.
Reverse hemox assay was performed essentially as described in Example 2, above, using either washed red blood cells or whole blood.
Results: Table 4, below, indicates the percent change in p50 (delta p50%) for each compound tested. In the washed red blood cells (RBCs), 5-HMF, compound 5, and compound 12 (1 mM compound) gave p50 of 20, 9 and 7 mm Hg, respectively, compared to the control red blood cells (delta p50=30 mm Hg). To determine the effects of plasma proteins on compound activity. OECs were measured in whole blood from sickle cell disease patients. 5-HMF, compound 5, compound 9, and compound 12 gave p50 of 27, 18, 11 and 6 mm Hg, respectively, compared to the control blood p50 of 30 mm Hg.

[1] = Rat pharmacokinetics and blood/plasma partitioning (Example 1); assay type: in vivo, Rats (Sprague-Dawley); settings: for blood plasma ratio: whole blood and plasma, oral, 10 mg/kg
Protocol: This experiment was established and used in order to assess the pharmacokinetic (PK) properties of the compounds.
Sample collection and data analysis: Rats (Sprague-Dawley, male, 8-12[…] weeks old) were dosed with one of three compounds corresponding to compound 12, compound 22 or compound 23. The rats received oral (10 mg/kg) or intravenous (1 mg/kg) doses of the compound. Rats were fasted overnight before the experiments and provided with food after the 2 hour sampling time point.
Blood samples were collected at different time points. Blood was anti-coagulated by 3.2% TSC (trisodium citrate) and a portion was separated into plasma fraction by centrifugation and removal of blood cells. Plasma and lysed blood samples were anal) zed for drug concentration using LC-MS/MS. PK parameters were calculated by non compartmental analysis of the concentration-time profiles using WinNonLin software (Pharsight, Mountain View, Calif.). Apparent elimination half-life (t1/2) values were calculated as ln(2)/k. Area under the concentration-time curve (AUC) values were estimated using the linear trapezoidal method. AUClast values were calculated from the dosing time to the last measurable concentration. AUCinf values were calculated as the sum of the corresponding AUClast and the ratio of the last detectable concentration divided by k. Plasma clearance (Cl) is calculated from Dose/AUCinf. Volume of distribution at steady state (Vss) is calculated from Mean Residence Timeinf×Clss. Maximum concentration (Cmax) and time to Cmax (Tmax) was recorded as observed. The blood/plasma partitioning ratio was calculated at each experimental time point.

purified HbS = target: T1, purified HbS (Homo sapiens, UniProt P68871+P69905, E7V); test: HbS polymerization assay; assay type: biochemical; settings: for Polymerization DTcmpd-DTHbS: [HbS] 50 μM
T1 construct: HbS is purified by the CRO VIRUSYS, from blood obtained from homozygous sickle cell patients; tissue VIRUSYS (CRO that did the purification); host or cells: blood of homozygous sickle cell patients
Protocol: Polymerization assays are carried out in vitro using purified HbS exchanged into 1.8 M potassium phosphate buffer at pH 7.4. Using a slightly modified protocol (Antonini and Brunori, 1971). HbS is purified by the CRO VIRUSYS, from blood obtained from homozygous sickle cell patients through the Hemoglobinopathy Center at Children's Hospital Oakland Research Institute (CHORI) with Institutional Review Board approval. Compounds are prepared in 100% DMSO and a desired amount is added to 50 μM of purified HbS at a final DMSO concentration of 0.3%. Final potassium phosphate concentration is adjusted to 1.8 M using a combination of 2.5 M potassium phosphate stock solution and water at pH 7.4. The reaction mixture is incubated for an hour at 37° C. and then transferred into a 24-well plate for deoxygenation in a glove box containing 99.5% nitrogen and 0.5% oxygen. The 24-well plate is not covered and incubated at 4° C. on a plate cooler inside the glove box for one and a half hours. Fifty μl of the reaction mixture is transferred into a 96-well plate and the absorbance at 700 nm is measured every minute for one hour at 37° C. in a plate reader located inside the glove box. A plot of the absorbance against time is fitted using a Boltzman sigmoidal fit and the delay time (from zero to time at half Vmax) is measured. To compare and rank compounds, delay times are expressed as percent delay (% DT), which is defined as the difference in delay times for HbS/compound and HbS alone multiplied by 100 and divided by the delay time for HbS alone.
The ability of 5-HMF and compound 12 to delay HbS polymerization was evaluated as described in Example 2, above. Purified HbS (50 μM) was pre-incubated with 25 μM, 50 μM, or 100 μM of 5-HMF or compound 12, then passively de-oxygenated at 4° C. in 1.8 M potassium phosphate. Polymerization was induced via temperature jump from 4° C. to 37° C. Polymerization was quantified based on turbidity of the HbS solution under continued hypoxia.

[2] = Mouse intravenous pharmacokinetics and blood/plasma partitioning; assay type: in vivo; settings: mice; for blood plasma ratio: whole blood and plasma, iv
Text: The ability of compound 12 to partition preferentially in red blood cells has also been confirmed in mice treated intravenously. […] Analogous to the measurements in rats, the volume of distribution (Vss) was low in mice (0.10). Thus, compound 12 is not expected to broadly distribute into extravascular space in mice.

CC(C)n1nccc1-c1ncccc1COc1cccc(O)c1C=O [Compound 12, 2-hydroxy-6-[[2-(2-propan-2-ylpyrazol-3-yl)pyridin-3-yl]methoxy] benzaldehyde]
Washed RBC OEC (delta p50%) (washed red blood cells; [Hb] 1 mM, [cmp] 1 mM): 76% | p50 (washed red blood cells; washed RBCs, 1 mM compound, control 30 mm Hg): 7 mm Hg | level of compound in blood versus plasma, overall exposure ([1]; dosed orally): 55 fold | relative proportion in blood (as compared to plasma) at peak concentration (Cmax) ([1]; dosed orally): 21 fold | Vd ([1]; male, Sprague-Dawley, in vivo, oral 10 mg/kg or intravenous 1 mg/kg, read-out: Vss): 0.14 L/kg | bioavailability ([1]; male, Sprague-Dawley, in vivo, oral 10 mg/kg, intravenous 1 mg/kg): 68.8% | clearance ([1]; male, Sprague-Dawley, plasma, oral 10 mg/kg or intravenous 1 mg/kg): 0.11 mL/min/kg | blood plasma ratio ([1]; male, Sprague-Dawley, read-out: Blood/plasma (Ratio of exposure AUCINF)): 55 | blood plasma ratio ([1]; male, Sprague-Dawley, read-out: Blood/plasma (Ratio of peak concentration)): 21 | red blood cell/plasma ratio at the peak concentration ([1]; ratio to 1 into the erythrocytes): 70 | Polymerization % DT (class) (purified HbS; 75 μM compound, 50 μM HbS): †† (activity >80% but ≦120%) | Polymerization % DT (percent delay) (purified HbS; 75 μM compound, 50 μM HbS): 108.56% | HbS polymerization delay (in words) (purified HbS; HbS 50 μM, 25, 50 or 100 μM compound): delayed HbS polymerization in a dose-dependent manner | Polymerization DTcmpd-DTHbS (purified HbS; [Cmpd] 25 μM): 3.9 min | Polymerization DTcmpd-DTHbS (purified HbS; [Cmpd] 50 μM): 12.8 min | Polymerization DTcmpd-DTHbS (purified HbS; [Cmpd] 100 μM): 22.9 min | Vd ([2]; in vivo, read-out: volume of distribution (Vss)): 0.1 L/kg | blood plasma ratio ([2]; read-out: ratio of blood/plasma at overall exposure): 30 | blood plasma ratio ([2]; read-out: ratio of blood/plasma at peak in vivo concentration): 15.4
